What was measured:
[1] = biological target: Glutamate carboxypeptidase 2 (Rattus norvegicus, UniProt P70627); experiment: Compound was evaluated for its ability to inhibit Glutamate carboxypeptidase-II using N-acetyl-L-aspartyl-[3H]L-glutamate as substrate
[2] = biological target: T1, Folylpolyglutamate synthase, mitochondrial (Homo sapiens, UniProt Q05932); experiment: Compound was evaluated for its ability to inhibit Folyl-poly-gamma-glutamyl synthetase
T1 sequence (Q05932 whole entry): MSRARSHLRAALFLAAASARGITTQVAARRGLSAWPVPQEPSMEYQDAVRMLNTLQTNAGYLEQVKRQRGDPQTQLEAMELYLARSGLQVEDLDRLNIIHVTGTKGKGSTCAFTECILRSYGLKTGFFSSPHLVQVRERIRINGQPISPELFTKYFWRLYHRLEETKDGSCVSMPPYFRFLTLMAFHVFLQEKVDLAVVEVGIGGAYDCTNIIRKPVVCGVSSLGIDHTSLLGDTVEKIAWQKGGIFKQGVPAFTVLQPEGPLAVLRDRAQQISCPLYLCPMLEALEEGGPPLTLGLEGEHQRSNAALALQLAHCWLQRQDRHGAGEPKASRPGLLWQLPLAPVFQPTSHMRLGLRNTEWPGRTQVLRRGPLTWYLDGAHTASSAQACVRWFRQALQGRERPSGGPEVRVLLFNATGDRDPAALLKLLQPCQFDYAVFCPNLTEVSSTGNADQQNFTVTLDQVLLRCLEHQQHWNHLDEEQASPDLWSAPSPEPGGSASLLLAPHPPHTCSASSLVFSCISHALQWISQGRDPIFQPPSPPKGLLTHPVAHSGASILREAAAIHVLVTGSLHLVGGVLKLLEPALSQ

[3] = Compound was evaluated for its ability to inhibit Gamma glutamylhydroxylase

Chain of Glutamate carboxypeptidase 2 (P70627 whole entry): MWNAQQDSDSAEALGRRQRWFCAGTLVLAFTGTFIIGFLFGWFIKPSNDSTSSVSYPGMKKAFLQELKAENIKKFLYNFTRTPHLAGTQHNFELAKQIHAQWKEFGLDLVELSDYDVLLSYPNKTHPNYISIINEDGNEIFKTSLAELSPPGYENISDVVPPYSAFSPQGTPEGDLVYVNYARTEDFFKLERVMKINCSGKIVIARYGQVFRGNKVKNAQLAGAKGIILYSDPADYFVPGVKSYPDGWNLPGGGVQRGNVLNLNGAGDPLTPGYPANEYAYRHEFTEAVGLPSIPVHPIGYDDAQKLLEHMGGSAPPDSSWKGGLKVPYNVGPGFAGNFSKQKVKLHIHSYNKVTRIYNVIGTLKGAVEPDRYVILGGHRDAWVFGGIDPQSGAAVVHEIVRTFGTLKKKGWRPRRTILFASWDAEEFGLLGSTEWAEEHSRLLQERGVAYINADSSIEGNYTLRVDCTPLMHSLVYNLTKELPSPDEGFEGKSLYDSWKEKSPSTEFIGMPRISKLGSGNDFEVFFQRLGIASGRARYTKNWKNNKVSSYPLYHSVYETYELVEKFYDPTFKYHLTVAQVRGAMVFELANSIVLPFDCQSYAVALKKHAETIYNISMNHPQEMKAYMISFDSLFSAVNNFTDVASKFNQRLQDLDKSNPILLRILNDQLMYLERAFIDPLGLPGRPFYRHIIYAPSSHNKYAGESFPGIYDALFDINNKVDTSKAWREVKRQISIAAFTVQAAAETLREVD

Structure (SMILES) | IC50 [1] | IC50 [2] | IC50 [3]
CNc1ccc(C(=O)N[C@@H](CCP(=O)(O)O[C@@H](CCC(=O)O)C(=O)O)C(=O)O)cc1 | 4 nM | 5700 nM | –
CN(Cc1cnc2nc(N)nc(N)c2n1)c1ccc(C(=O)NC(CCP(=O)(O)OC(CCC(=O)O)C(=O)O)C(=O)O)cc1 (stereo not given) | 5 nM | 20 nM | –
Nc1ccc(C(=O)N[C@@H](CCP(=O)(O)O[C@@H](CCC(=O)O)C(=O)O)C(=O)O)cc1 | 3 nM | 8600 nM | > 200000 nM
CN(Cc1cnc2nc(N)nc(N)c2n1)c1ccc(C(=O)N[C@@H](CCP(=O)(O)O[C@@H](CCC(=O)O)C(=O)O)C(=O)O)cc1 | 4 nM | 120 nM | > 200000 nM

— ChEMBL document CHEMBL1134868, “Phosphonate and phosphinate analogues of N-acylated gamma-glutamylglutamate. potent inhibitors of glutamate carboxypeptidase II” (Bioorg Med Chem Lett, 2002)
